Data reported in patent publication US9452986B2, “6-heteroaryloxy- or 6-aryloxy-quinoline-2-carboxamides and method of use” (AbbVie Inc., priority 2014, dated 2016).
Where two headings read alike, the source gives them in different places.

Tests used:
recombinant human Nav1.7 = recombinant human Nav1.7 (Homo sapiens (Human), UniProt Q15858); test: FRET-based membrane potential assay, recombinant human sodium channel Nav1.7; type: cell-based
In short: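 Channel activation used veratridine at its EC80, set by a dilution curve each experiment, together with Leiurus scorpion venom, added 3 min after compound. Membrane-potential ratio signals from FLIPR Tetra in HEPES-buffered HBSS were fitted to a four-parameter Hill equation for percent inhibition and IC50.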

osteoarthritic rats = test: Osteoarthritic (OA) pain induced by sodium monoiodoacetate (MIA), hind limb grip force; type: in vivo, rat; conditions: Rattus norvegicus, 480 h, rat, 20 days following MIA injection, hind limb grip force, read-out: OA MPE; for inhibition in vivo at 10 mg/kg: OA dose 10 mg/kg
Description: Osteoarthritic (OA) Pain Induced by Sodium Monoiodoacetate (MIA)
Pain behavior was assessed by measurement of hind limb grip force (GF) in adult osteoarthritic rats. Male Sprague Dawley rats, obtained from Charles River Laboratories, (Wilmington, Mass.), weighing 150-175 g, were injected in the unilateral knee join with a single intra-articular injection of sodium monoiodoacetate (MIA, 3 mg/rat). All rats were tested at 20 days following MIA injection. A behavioral measure of activity-induced pain was carried out. Measurements of the peak hind limb grip force were conducted by recording the maximum compressive force (CFmax), in grams of force, exerted on a hind limb strain gauge setup, in a commercially available grip force measurement system (Columbus Instruments, Columbus, Ohio).
During testing, each rat was gently restrained by grasping it around its rib cage and then allowed to grasp the wire mesh frame attached to the strain gauge. The experimenter then moved the animal in a rostral-to-caudal direction until the grip was broken. Each rat was sequentially tested twice at an approximately 2-3 minute interval to obtain a raw mean grip force (CFmax). This raw mean grip force data was in turn converted to a maximum hindlimb cumulative compressive force (CFmax), as the grams of force/kg of body weight, for each animal.
For evaluating the compound effects, the hind limb grip force was conducted 20 days following the intra-articular injection of MIA. A group of age-matched naïve (not injected with MIA) animals was added as a comparator to the drug-dosed groups. The vehicle control response for each group of MIA-treated animals was defined as the 0% response (0% effect), whereas the naïve control group was defined as the normal response and as 100% effect. The % effect for each dose group was expressed as % return of response to normalcy, compared to the naïve group. A percent maximal possible effect (% MPE) of testing compound was calculated according to the formula: (Treatment CFmax−Vehicle CFmax)/Vehicle CFmax]×100). Higher % effect numbers indicate increased relief from the pain in the model, with 100% indicating a return to the level of response seen in normal (non-osteoarthritic) animals. All experiments evaluating drug effects in this model were conducted in a randomized blinded fashion.
The animals were housed in Association for Assessment and Accreditation of Laboratory Animal Care (AAALAC) approved facilities at AbbVie Inc. in a temperature-regulated environment under a controlled 12-hour light-dark cycle, with lights on at 6:00 a.m. Food and water were available ad libitum at all times except during testing. All testing was done following procedures outlined in protocols approved by AbbVie Inc.'s Institutional Animal Care and Use Committee.

[1] = read-out: FRET-Membrane Potential Nav1.7 IC50
[2] = HEK293 cells stably expressing recombinant human Nav1.7, veratridine + scorpion venom depolarization, read-out: FRET-Membrane Potential Nav1.7 IC50

Sequence of recombinant human Nav1.7 (Q15858 whole entry): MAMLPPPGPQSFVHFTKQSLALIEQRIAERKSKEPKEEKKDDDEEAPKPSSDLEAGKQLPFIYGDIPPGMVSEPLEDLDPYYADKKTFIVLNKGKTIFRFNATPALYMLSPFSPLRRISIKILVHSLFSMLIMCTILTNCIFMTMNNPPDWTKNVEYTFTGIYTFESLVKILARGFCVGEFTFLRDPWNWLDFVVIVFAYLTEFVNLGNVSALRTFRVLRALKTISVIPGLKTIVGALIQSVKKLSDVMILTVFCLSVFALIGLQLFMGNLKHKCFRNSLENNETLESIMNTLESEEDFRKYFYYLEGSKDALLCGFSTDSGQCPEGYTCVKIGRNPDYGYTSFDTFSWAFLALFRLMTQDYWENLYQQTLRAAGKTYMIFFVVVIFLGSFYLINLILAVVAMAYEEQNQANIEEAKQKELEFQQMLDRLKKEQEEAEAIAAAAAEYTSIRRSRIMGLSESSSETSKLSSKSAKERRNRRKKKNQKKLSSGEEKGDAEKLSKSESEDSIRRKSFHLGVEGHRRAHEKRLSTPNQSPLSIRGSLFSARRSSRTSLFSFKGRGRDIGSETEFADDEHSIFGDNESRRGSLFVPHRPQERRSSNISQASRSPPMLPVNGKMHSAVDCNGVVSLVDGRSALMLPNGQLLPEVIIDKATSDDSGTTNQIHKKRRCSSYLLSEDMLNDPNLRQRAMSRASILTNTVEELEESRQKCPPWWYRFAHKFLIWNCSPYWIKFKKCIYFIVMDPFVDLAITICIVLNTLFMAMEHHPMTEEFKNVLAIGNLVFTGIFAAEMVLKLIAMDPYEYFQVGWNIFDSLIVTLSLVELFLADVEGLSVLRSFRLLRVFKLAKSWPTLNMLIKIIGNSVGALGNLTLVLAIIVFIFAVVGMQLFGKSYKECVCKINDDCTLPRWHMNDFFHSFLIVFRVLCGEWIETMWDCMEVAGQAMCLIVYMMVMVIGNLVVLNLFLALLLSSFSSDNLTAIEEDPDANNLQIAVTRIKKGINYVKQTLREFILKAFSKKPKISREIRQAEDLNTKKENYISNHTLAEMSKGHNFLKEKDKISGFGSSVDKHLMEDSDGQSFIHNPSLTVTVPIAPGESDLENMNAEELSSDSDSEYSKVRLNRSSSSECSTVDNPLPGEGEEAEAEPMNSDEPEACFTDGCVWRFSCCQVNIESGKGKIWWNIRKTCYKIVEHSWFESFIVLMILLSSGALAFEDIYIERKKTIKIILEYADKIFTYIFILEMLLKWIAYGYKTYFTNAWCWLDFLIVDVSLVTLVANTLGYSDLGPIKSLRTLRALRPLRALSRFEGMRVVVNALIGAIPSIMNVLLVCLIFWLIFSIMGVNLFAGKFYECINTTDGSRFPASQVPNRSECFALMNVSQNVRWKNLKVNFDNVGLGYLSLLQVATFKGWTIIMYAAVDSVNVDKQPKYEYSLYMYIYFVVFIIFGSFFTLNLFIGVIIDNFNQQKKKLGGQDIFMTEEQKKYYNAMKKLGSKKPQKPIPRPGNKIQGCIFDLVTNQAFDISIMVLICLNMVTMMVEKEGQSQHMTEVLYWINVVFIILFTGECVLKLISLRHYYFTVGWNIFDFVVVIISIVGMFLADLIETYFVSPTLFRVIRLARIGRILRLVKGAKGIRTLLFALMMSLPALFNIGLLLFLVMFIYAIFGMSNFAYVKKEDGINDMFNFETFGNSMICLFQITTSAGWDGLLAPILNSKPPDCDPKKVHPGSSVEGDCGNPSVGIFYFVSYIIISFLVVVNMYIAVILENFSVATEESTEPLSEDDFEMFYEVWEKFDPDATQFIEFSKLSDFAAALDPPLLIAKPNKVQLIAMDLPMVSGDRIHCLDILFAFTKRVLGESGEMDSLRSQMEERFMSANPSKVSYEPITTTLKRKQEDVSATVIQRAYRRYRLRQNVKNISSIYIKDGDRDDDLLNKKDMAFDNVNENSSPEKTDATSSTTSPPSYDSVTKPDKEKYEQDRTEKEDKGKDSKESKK

SMILES	IC50 (recombinant human Nav1.7; [1]) [µM]	inhibition in vivo at 10 mg/kg (osteoarthritic rats) [%]	IC50 (recombinant human Nav1.7; [2]) [µM]	IC50 (recombinant human Nav1.7; FRET-Membrane Potential Nav1.7 IC50) [µM]	inhibition in vivo at 30 mg/kg (osteoarthritic rats; OA dose 30 mg/kg) [%]
C[C@@H]1CN(C(=O)c2ccc3cc(Oc4ccc(C(F)(F)F)cn4)ccc3n2)CCN1 [Example 12, [(3R)-3-methylpiperazin-1-yl](6-{[5-(trifluoromethyl)pyridin-2-yl]oxy}quinolin-2-yl)methanone]	0.348	79			
C[C@H]1CN(C(=O)c2ccc3cc(Oc4ccc(C(F)(F)F)cn4)ccc3n2)CCN1 [Example 13, [(3S)-3-methylpiperazin-1-yl](6-{[5-(trifluoromethyl)pyridin-2-yl]oxy}quinolin-2-yl)methanone]	0.454	44			
O=C(NC1CCS(=O)(=O)CC1)c1ccc2cc(Oc3ccc(C(F)(F)F)cn3)ccc2n1 [Example 15, N-(1,1-dioxidotetrahydro-2H-thiopyran-4-yl)-6-{[5-(trifluoromethyl)pyridin-2-yl]oxy}quinoline-2-carboxamide]		52	1.09		
CC[C@@H]1CN(C(=O)c2ccc3cc(Oc4ccc(C(F)(F)F)cn4)ccc3n2)CCN1 [Example 16, [(3R)-3-ethylpiperazin-1-yl](6-{[5-(trifluoromethyl)pyridin-2-yl]oxy}quinolin-2-yl)methanone]		57	0.406		
O=C(c1ccc2cc(Oc3ccc(C(F)(F)F)cn3)ccc2n1)N1CCN[C@@H](CO)C1 [Example 17, [(3R)-3-(hydroxymethyl)piperazin-1-yl](6-{[5-(trifluoromethyl)pyridin-2-yl]oxy}quinolin-2-yl)methanone]	3.12	19			
O=C(NCCN1CCOCC1)c1ccc2cc(Oc3ccc(C(F)(F)F)cn3)ccc2n1 [Example 21, N-[2-(morpholin-4-yl)ethyl]-6-{[5-(trifluoromethyl)pyridin-2-yl]oxy}quinoline-2-carboxamide]		35	0.529		
O=C(N[C@@H]1CS(=O)(=O)C[C@H]1O)c1ccc2cc(Oc3ccc(C(F)(F)F)cn3)ccc2n1 [Example 24, N-[(3S,4S)-4-hydroxy-1,1-dioxidotetrahydrothiophen-3-yl]-6-{[5-(trifluoromethyl)pyridin-2-yl]oxy}quinoline-2-carboxamide]	1.58	62			
O=C(N[C@H]1CS(=O)(=O)C[C@H]1O)c1ccc2cc(Oc3ccc(C(F)(F)F)cn3)ccc2n1 [Example 26, N-[(3R,4S)-4-hydroxy-1,1-dioxidotetrahydrothiophen-3-yl]-6-{[5-(trifluoromethyl)pyridin-2-yl]oxy}quinoline-2-carboxamide]	1.99	67			
O=C(c1ccc2cc(Oc3ccc(C(F)(F)F)cn3)ccc2n1)N1CC(=O)N2CCC[C@H]2C1 [Example 27, (8aS)-2-[(6-{[5-(trifluoromethyl)pyridin-2-yl]oxy}quinolin-2-yl)carbonyl]hexahydropyrrolo[1,2-a]pyrazin-4(1H)-one]		49	1.1		
CC(C)(O)CNC(=O)c1ccc2cc(Oc3ccc(C(F)(F)F)cn3)ccc2n1 [Example 30, N-(2-hydroxy-2-methylpropyl)-6-{[5-(trifluoromethyl)pyridin-2-yl]oxy}quinoline-2-carboxamide]		66	0.793		
O=C(NC1CC[S+]([O-])CC1)c1ccc2cc(Oc3ccc(C(F)(F)F)cn3)ccc2n1 (stereo not shown) [Example 32, N-(1-oxidotetrahydro-2H-thiopyran-4-yl)-6-{[5-(trifluoromethyl)pyridin-2-yl]oxy}quinoline-2-carboxamide]	0.535	23			
O=C(N[C@H]1C[C@@H](O)C1)c1ccc2cc(Oc3ccc(C(F)(F)F)cn3)ccc2n1 [Example 34, N-(cis-3-hydroxycyclobutyl)-6-{[5-(trifluoromethyl)pyridin-2-yl]oxy}quinoline-2-carboxamide]		41		0.841	
O=C(NCC1CCO1)c1ccc2cc(Oc3ccc(C(F)(F)F)cn3)ccc2n1 (stereo not shown) [Example 37, N-(oxetan-2-ylmethyl)-6-{[5-(trifluoromethyl)pyridin-2-yl]oxy}quinoline-2-carboxamide]		29	0.392		
C[C@@H](O)CNC(=O)c1ccc2cc(Oc3ccc(C(F)(F)F)cn3)ccc2n1 [Example 38, N-[(2R)-2-hydroxypropyl]-6-{[5-(trifluoromethyl)pyridin-2-yl]oxy}quinoline-2-carboxamide]	0.311	30			
O=C(c1ccc2cc(Oc3ccc(C(F)(F)F)cn3)ccc2n1)N1CCNC2(CC2)C1 [Example 39, 4,7-diazaspiro[2.5]oct-7-yl(6-{[5-(trifluoromethyl)pyridin-2-yl]oxy}quinolin-2-yl)methanone]			0.735		43
O=C1CC(NC(=O)c2ccc3cc(Oc4ccc(C(F)(F)F)cn4)ccc3n2)CCN1 (stereo not shown) [Example 40, N-(2-oxopiperidin-4-yl)-6-{[5-(trifluoromethyl)pyridin-2-yl]oxy}quinoline-2-carboxamide]	0.285	59			
CO[C@H]1C[C@@H](NC(=O)c2ccc3cc(Oc4ccc(C(F)(F)F)cn4)ccc3n2)C1 [Example 41, N-(cis-3-methoxycyclobutyl)-6-{[5-(trifluoromethyl)pyridin-2-yl]oxy}quinoline-2-carboxamide]		67	1.27		
CN(C)C(=O)CNC(=O)c1ccc2cc(Oc3ccc(C(F)(F)F)nc3)ccc2n1 [Example 42, N-[2-(dimethylamino)-2-oxoethyl]-6-{[6-(trifluoromethyl)pyridin-3-yl]oxy}quinoline-2-carboxamide]		64	1.79		
C[C@H]1CN(C(=O)c2ccc3cc(Oc4ccc(C(F)F)cn4)ccc3n2)CCN1 [Example 43, (6-{[5-(difluoromethyl)pyridin-2-yl]oxy}quinolin-2-yl) [(3S)-3-methylpiperazin-1-yl]methanone]		71	3.06		
O=C(NC1CC(=O)N(c2ccc(F)cc2)C1)c1ccc2cc(Oc3ccc(C(F)(F)F)cn3)ccc2n1 (stereo not shown) [Example 54, N-[1-(4-fluorophenyl)-5-oxopyrrolidin-3-yl]-6-{[5-(trifluoromethyl)pyridin-2-yl]oxy}quinoline-2-carboxamide]		21	0.409		
COCC1CN(C(=O)c2ccc3cc(Oc4ccc(C(F)(F)F)cn4)ccc3n2)C1 [Example 60, [3-(methoxymethyl)azetidin-1-yl](6-{[5-(trifluoromethyl)pyridin-2-yl]oxy}quinolin-2-yl)methanone]		23	1.26		
CN(C)C(=O)CNC(=O)c1ccc2cc(Oc3ccc(C(F)F)cn3)ccc2n1 [Example 441, 6-{[5-(difluoromethyl)pyridin-2-yl]oxy}-N-[2-(dimethylamino)-2-oxoethyl]quinoline-2-carboxamide]	1.15	22			
N#CC1CN(C(=O)c2ccc3cc(Oc4ccc(C(F)(F)F)cn4)ccc3n2)CCN1 (stereo not shown) [Example 483, 4-[(6-{[5-(trifluoromethyl)pyridin-2-yl]oxy}quinolin-2-yl)carbonyl]piperazine-2-carbonitrile]	3.61	55			
